In the NIST ThermoML archive (doi:10.1021/acs.jced.5b00948):

How the values were obtained:
[1] = refractive index (Na D-line) (dimensionless); details: 298.15 K; 100 kPa; Liquid; Standard Abbe refractometry
[2] = mn = molality of the nth substance listed, in mol/kg; details: 298.15 K, 100 kPa, Liquid, Alternating current cell with electrodes
[3] = wn = mass fraction of the nth substance listed; details: 298.15 K, 100 kPa, Liquid, Vibrating tube method
[4] = refractive index (Na D-line) (dimensionless); wn = mass fraction of the nth substance listed; details: 298.15 K, 100 kPa, Liquid, Standard Abbe refractometry

O [water]
Details | refractive index
[1] | 1.3325

CCCCCCCC[n+]1ccn(C)c1.[Cl-] [1-methyl-3-octylimidazolium chloride] + O
[2]
Details | electrical conductivity [S/m]
m1 = 0.03 | 0.245
m1 = 0.06 | 0.425
m1 = 0.124 | 0.712
m1 = 0.18 | 0.901
m1 = 0.242 | 1.03
m1 = 0.284 | 1.1
m1 = 0.319 | 1.123
m1 = 0.352 | 1.18
m1 = 0.389 | 1.204
m1 = 0.421 | 1.228
m1 = 0.48 | 1.26
m1 = 0.51 | 1.28
m1 = 0.541 | 1.301

CCCCn1cc[n+](C)c1.N[C@@H](CCC(=O)O)C(=O)[O-] [1-butyl-3-methylimidazolium (S)-2-amino-4-carboxybutanoate] + O
Details | electrical conductivity [S/m] | mass density [kg/m3] | refractive index
[2], m1 = 0.061 | 0.277 | – | –
[2], m1 = 0.101 | 0.364 | – | –
[2], m1 = 0.142 | 0.466 | – | –
[2], m1 = 0.196 | 0.577 | – | –
[2], m1 = 0.253 | 0.676 | – | –
[2], m1 = 0.361 | 0.869 | – | –
[2], m1 = 0.439 | 1.01 | – | –
[2], m1 = 0.541 | 1.13 | – | –
[2], m1 = 0.628 | 1.205 | – | –
[2], m1 = 0.715 | 1.27 | – | –
[2], m1 = 0.848 | 1.37 | – | –
[2], m1 = 0.963 | 1.431 | – | –
[3], w1 = 0.111 | – | 1022.7 | –
[3], w1 = 0.183 | – | 1038.8 | –
[3], w1 = 0.273 | – | 1058.6 | –
[3], w1 = 0.353 | – | 1075.4 | –
[3], w1 = 0.42 | – | 1091 | –
[3], w1 = 0.491 | – | 1105.2 | –
[3], w1 = 0.561 | – | 1122.2 | –
[3], w1 = 0.628 | – | 1136.6 | –
[3], w1 = 0.717 | – | 1153.7 | –
[3], w1 = 0.773 | – | 1167.1 | –
[3], w1 = 0.836 | – | 1181.6 | –
[3], w1 = 0.863 | – | 1185.8 | –
[4], w1 = 0.05 | – | – | 1.3448
[4], w1 = 0.103 | – | – | 1.3584
[4], w1 = 0.152 | – | – | 1.3724
[4], w1 = 0.2 | – | – | 1.3838
[4], w1 = 0.299 | – | – | 1.4025
[4], w1 = 0.377 | – | – | 1.4179
[4], w1 = 0.492 | – | – | 1.4473
[4], w1 = 0.576 | – | – | 1.4684
